The subject of one data set is RNA Synthesis. To be noted: grade and speed (rapid/slow); cited from earlier work.
The conditions of data set [1]: cited from earlier work.
A further data set relates to DNA Synthesis. To be noted: grade and speed (rapid/slow); cited from earlier work.
The conditions of data set [2]: compared to other anthracyclines; cited from earlier work.
For data set [3] the following is noted: 40 mg/ml intravesical instillation of two hours, 6 times once a week; cited from earlier work.
The next data set has as its system psoriasis vulgaris. Nature of the data set: Clinical trial, topical therapy of psoriasis vulgaris (Examples 11-16). The format is in vivo, human. Here is the method:
A patient having dermal manifestations of psoriasis vulgaris was selected for therapy using the invention. Valrubicin was prepared as a solution (ref ex, 5) at a concentration of 2% (weight/weight) and was applied to the affected skin once daily. The patient was monitored for improvement in their manifestations of psoriasis. […] A patient having dermal manifestations of psoriasis vulgaris was selected for therapy using the invention. Valrubicin was prepared as a solution (ref ex. 8) at a concentration of 0.5% (weight/weight) and was applied to the affected skin once daily. The patient was monitored for improvement in their manifestations of psoriasis. […] A patient having dermal manifestations of psoriasis vulgaris was selected for therapy using the invention. Valrubicin was prepared as a gel (ref ex. 6) at a concentration of 1% (weight/weight) and was applied to the affected skin once daily. The patient was monitored for improvement in their manifestations of psoriasis. […] A patient having dermal manifestations of psoriasis vulgaris was selected for therapy using the invention. Valrubicin was prepared as a solution (ref. ex 5) at a concentration of 2.0% (weight/weight) and was applied to the affected skin twice daily. The patient was monitored for improvement in their manifestations of psoriasis. […] A patient having dermal manifestations of psoriasis vulgaris was selected for therapy using the invention. Valrubicin was prepared as a solution (ref. ex 5) at a concentration of 2.0 (weight/weight) and was applied to the affected skin twice a week. The patient was monitored for improvement in their manifestations of psoriasis. […] A patient having dermal manifestations of psoriasis vulgaris was selected for therapy using the invention. Valrubicin was prepared as a solution (ref. ex 5) at a concentration of 2.0% (weight/weight) and was applied to the affected skin once a week. The patient was monitored for improvement in their manifestations of psoriasis.

The conditions of data set [4]: in vivo; cited from earlier work.
The conditions of data set [5]: concentration similar to that used in treatment of bladder cancer; cited from earlier work.
In a further data set the test system is normal dermal epithelium. To be noted: histopathological animal experiments; cited from earlier work.
For data set [6] the following is noted: paravenous injection; cited from earlier work.

As for `COc1cccc2c1C(=O)c1c(O)c3c(c(O)c1C2=O)C[C@@](O)(C(=O)CO)C[C@@H]3O[C@H]1C[C@H](N)[C@H](O)[C@H](C)O1` [Doxorubicin], the “RNA Synthesis inhibition” value in the data set with RNA Synthesis is listed as “+ (slow)”. Besides, in [1], the In vivo elimination entry is “Slow” and the In vivo metabolism result is “Minimal”. Moreover, the “DNA Synthesis inhibition” value in the data set with DNA Synthesis is reported as “+++ (slow)”.

Take `CCCCC(=O)OCC(=O)[C@]1(O)Cc2c(O)c3c(c(O)c2[C@@H](O[C@H]2C[C@H](NC(=O)C(F)(F)F)[C@H](O)[C@H](C)O2)C1)C(=O)c1c(OC)cccc1C3=O` [Valrubicin, N-trifluoroacetyladriamycin-14-valerate]: in [2], the Lipophilicity entry was “very lipophilic”. The “RNA Synthesis inhibition” value in the data set on RNA Synthesis is reported as “+++ (rapid)”. The “Depth into the epithelium of the bladder at which an effective concentration is found” value in data set [3] is listed as 1800 μm. In addition, the Systemic uptake result in data set [3] is “does not result in systemic uptake”. Besides, the In vivo elimination result in data set [1] is “rapid”. Besides, the In vivo metabolism result in data set [1] is reported as “Extensive”. Moreover, in the data set on DNA Synthesis, the “DNA Synthesis inhibition” value is “+++ (rapid)”. The “Skin lesions of psoriasis” value in the data set with psoriasis vulgaris (gel (ex. 6) 1% w/w, once daily) is “skin lesions had subsided”; with psoriasis vulgaris (solution (ex. 5) 2.0% w/w, once a week), “skin lesions had subsided”; in the data set with psoriasis vulgaris (solution (ex. 5) 2% w/w, once daily), “skin lesions had subsided”; in the data set on psoriasis vulgaris (solution (ex. 5) 2.0% w/w, twice daily) it was “skin lesions had subsided”; with psoriasis vulgaris (solution (ex. 5) 2.0 (weight/weight), twice a week), “skin lesions had subsided”; in the data set on psoriasis vulgaris (solution (ex. 8) 0.5% w/w, once daily) it was “skin lesions had subsided”. The “Cardiotoxicity and haematological toxicity versus other anthracyclines” value in data set [4] is “less cardiotoxic and haematologically toxic”. In addition, the “Irritation of skin and eyes” value in data set [5] was “mild to no irritation”. In addition, the “Effect on normal dermal epithelium” value with normal dermal epithelium is on record as “does not affect normal dermal epithelium”.

`COc1cccc2c1C(=O)c1c(O)c3c(c(O)c1C2=O)C[C@@](O)(C(=O)CO)C[C@@H]3O[C@H]1C[C@H](N)[C@@H](O)[C@H](C)O1` [epirubicin]: the Local tissue toxicity entry in data set [6] is given as “severe necrosis”.

(Values after patent publication US8263567B2, “Treatment of hyperproliferative conditions of body surfaces” (Valderm APS, priority 2001, dated 2012).)
